Assay in all cases: NCI anticancer screen, dose series, 48 h
The test system of experiment [1] is UACC-257 melanoma.
Experiment [2] relates to IGROV1 ovarian.
In experiment [3] the test system is OVCAR-3 ovarian.
In experiment [4] the test system is HCT-15 colon.
In experiment [5] the test system is NCI-H23 lung.
The subject of experiment [6] is SW-620 colon.
Experiment [7] concerns TK-10 renal.
In experiment [8] the test system is MOLT-4 leukemia.
The test system of experiment [9] is KM12 colon.
In experiment [10] the test system is LOX IMVI melanoma.

Where “and” joins values, the source holds several entries; their conditions need not be identical. Equal entries are not always repeated.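 1) Cells in 96-well plates. 2) Compound, 48 h, 5 concentrations. 3) Linear interpolation between surrounding doses. 4) Unreached endpoint = highest concentration. The concentration for 50% growth inhibition is given as GI50. TGI: concentration producing complete growth inhibition.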

As to `CC1(C)OC(CCO)CN1C(=O)OCc1ccccc1` (stereo unspecified), the TGI in experiment [1], in [2], in [3], in experiment [4], in experiment [5] and in experiment [6] was over 100 µM throughout. The TGI in experiment [7], in [8], in experiment [9] and in experiment [10] was over 100 µM throughout.

`COc1ccc(/C=N/Nc2nc3ccccc3c(=O)n2-c2ccccc2)c(OCc2ccccc2)c1`: the TGI in [1], in experiment [2], in experiment [3], in experiment [4], in experiment [5] and in experiment [6] was over 100 µM in each case. Further, the TGI in experiment [7], in [8], in experiment [9] and in [10] was over 100 µM each time.

As for `CC[P+](C#Cc1ccccc1)(c1ccccc1)c1ccccc1`, the TGI in [1] came out at 4.11 µM; in experiment [2], 11.9 µM; in experiment [3] it was 4.55 µM; in [4] it was 17.7 µM; in experiment [5], 7.51 µM; in experiment [6] it was 10.8 µM. Further, the TGI in [7] turned out to be 7.09 µM; in [8], 3.93 µM; in [9], 3.29 µM; in experiment [10], 4.19 µM.

Turning to `NC(=S)N=Nc1c(O)cc(Nc2ccc(Cl)cc2Cl)c2ccccc12`, the TGI was over 100 µM in experiment [1]; 88 µM in [2]; 54.4 µM in experiment [3]; over 100 µM in [4]; 97.7 µM in experiment [5]; over 100 µM in [6]. The TGI in [7], in [8], in experiment [9] and in experiment [10] was over 100 µM each time.

As for `CCN(CC(=O)O)CC(=O)O`, the TGI in experiment [1], in experiment [2], in experiment [3], in [4], in experiment [5] and in experiment [6] was over 100 µM each time. In addition, the TGI in experiment [7], in experiment [8], in experiment [9] and in [10] was over 100 µM throughout.

As to `CC(C)(C)OC(=O)c1ccc(NCc2cc(O)ccc2O)cc1`, the TGI in experiment [1] stood at 14.9 µM; in experiment [2], 5.47 µM; in [3], 3.9 µM; in [4], 3.12 µM; in experiment [5], 16.8 µM; in experiment [6], 14.5 µM. Moreover, the TGI in experiment [7] was 6.07 µM; in experiment [8], 11.2 µM; in [9] it was 12.2 µM; in experiment [10], 13.5 µM.

On to `Cc1cc2c(cc1Cl)SC(NNc1cnc3ccccc3n1)=NS2(=O)=O`, for which the TGI in experiment [1], in experiment [2], in [3], in [4], in [5] and in [6] was over 100 µM in each case. Also, the TGI is over 100 µM in experiment [7], 63.5 µM in [8], over 100 µM in experiment [9] and over 100 µM in experiment [10].

On to `COP(=O)(CC(=O)C1OC(OCc2ccccc2)C(OCc2ccccc2)C(OCc2ccccc2)C1OCc1ccccc1)OC` (stereo unspecified), for which the TGI in [1] was 43.9 µM; in [2], over 100 µM; in experiment [3], over 100 µM; in experiment [4], over 100 µM; in experiment [5] it was over 100 µM; in experiment [6] it was over 100 µM. Besides, the TGI in [7] was 79.8 µM; in experiment [8], over 100 µM; in experiment [9], 37.6 µM; in experiment [10], 32.3 µM.

Consider `CCN(C(=O)N[C@H](C(=O)N[C@@H](C)C(=O)OC)C(C)C)c1ccccc1`, for which the TGI in experiment [1] is 41.8 µM; in [2], over 100 µM; in [3], over 100 µM; in experiment [4], over 100 µM; in experiment [5], over 100 µM; in experiment [6], over 100 µM. In addition, the TGI in [7] is 98.6 µM; in experiment [8], over 100 µM; in experiment [9] it was over 100 µM; in experiment [10], over 100 µM.

For `C=C1CC2C(=O)N(c3ccccc3)C(=O)C2CC1n1[nH]c(=O)n(Cc2ccccc2)c1=O` (stereo unspecified), the TGI in [1], in experiment [2], in experiment [3], in [4], in experiment [5] and in [6] was over 100 µM throughout. Moreover, the TGI in experiment [7], in experiment [8], in experiment [9] and in [10] was over 100 µM each time.

Consider `COn1cc(CO)c2ccccc21`, for which the TGI in experiment [1] was over 70.8 µM; in experiment [2], over 100 µM; in [3], over 100 µM; in [4], over 100 µM; in experiment [5] it was over 100 µM; in experiment [6], over 100 µM. Besides, the TGI in [7] was over 46.2 µM; in experiment [8] it was over 100 µM; in [9], over 100 µM; in experiment [10] it was over 100 µM.

With `CC1=C(C(=O)NNC(=O)CC#N)CC(C(=O)NNC(=O)CC#N)=C(C)N1`, the TGI in [1], in experiment [2], in experiment [3], in experiment [4], in [5] and in experiment [6] was over 100 µM in each case. The TGI in experiment [7], in experiment [8], in [9] and in experiment [10] was over 100 µM throughout.

On to `COCC(=O)OC1CCn2c1nc1c2C(=O)C(C)=C(NC(C)=O)C1=O` (stereo unspecified), for which the TGI in experiment [1] is 9.08 µM; in [2], 32.7 µM; in experiment [3], 5.23 µM and 4.82 µM; in [4], 30.1 µM; in experiment [5], 22.5 µM; in experiment [6], 19.8 µM. Further, the TGI is 34.5 µM in experiment [7]; 6.36 µM and 4.94 µM in [8]; 30.5 µM in experiment [9]; 13.2 µM in experiment [10]. The GI50 in experiment [2] is 4.3 µM; in [3] it was 1900 nM; in experiment [5] it was 3.23 µM; in experiment [6], 3.43 µM; in experiment [8], 772 nM; in experiment [10], 2810 nM.

Source of the values: PubChem BioAssay (NCI).
